# Measured values from paper PMC5971337, “Development of an Ultra-High Performance Liquid Chromatography Method for Simultaneous Determination of Six Active Compounds in Fructus aurantii and Rat Plasma and Its Application to a Comparative Pharmacokinetic Study in Rats Administered with Different Doses” (Journal of Analytical Methods in Chemistry, 2018).
# Where two headings read alike, the source gives them in different places.
# Columns and labels:
# [1] = Stability of QC samples in rat plasma (short-term, freeze-thaw, long-term); format: in vitro ADME; details: for Short-term stability, Mean ± SD: room temperature for 4 h; for Freeze-thaw stability, Mean ± SD: three freeze (−20°C) and thaw cycles; for Long-term stability, Mean ± SD: −20°C for 20 days
# Method: (§1) Standard stock solutions were prepared by dissolving reference standards in methanol to yield concentrations of 198 µg/mL for meranzin hydrate, 128 µg/mL for naringenin, 273 µg/mL for hesperetin, and 4.56 µg/mL for SMZ. All solutions were stored at 4°C. QC samples were prepared at three concentration levels containing meranzin hydrate (6.5, 206, 3300 ng/mL), naringenin (13.9, 222, 3555 ng/mL), and hesperetin (3.7, 29.5, 236 ng/mL). Plasmas (100 µL) were spiked with β-glucuronidase (5 µL) and acetic acid buffer solution (10 µL), subsequently vortexed for 10 seconds, and incubated for 4 h at 37°C. Then, SMZ (50 µL) and methanol (135 µL) were added, ultrasound was done for 10 min, and centrifugation at 12000 rpm (4°C) for 10 min was performed. The supernatant (50 µL) was transferred, distilled water (50 µL) was added, then ultrasound and centrifugation again. At last, the supernatant of 5 µL was injected into UPLC.
# (5) Stability. QC plasma samples of each concentration at low, medium, and high levels were detected. The freeze and thaw stability were investigated after three freeze (−20°C) and thaw (room temperature) cycles on consecutive days. Long-term stability was studied by storing QC samples at −20°C for 20 days. Short-term stability was assessed by analyzing QC samples kept at room temperature for 4 h.
# [2] = Pharmacokinetic study in rats after oral administration of FA decoction; format: in vivo, Sprague-Dawley rats; details: for Cmax / AUC(0-t) / Tmax / MRT last / half-life: male, Sprague-Dawley, rat plasma; for AUC(0-t): last dose day 8, plasma treated with β-glucuronidase; for MRT last: read-out: MRT(0–t); for half-life: read-out: t 1/2z (converted); for AUC(0–t) elevation, 30 g/kg compared with the 15 g/kg group / C max elevation, 30 g/kg compared with the 15 g/kg group: rat, oral FA decoction; for detection in rat plasma: even after orally administering 30 g/kg FA decoction
# Method: 16 male Sprague-Dawley (SD) rats weighing 200 ± 20 g were from experimental animal center of Central South University and fostered in an environmentally controlled room (temperature: 22–26°C, humidity: 40–60%, and 12 h dark-light cycle) for 1 week before the experiment. All experimental procedures were implemented strictly according to the guidelines of the Animal Care and Use Committee, Central South University, China. This research was approved by the Animal Ethics Committee of Central South University. Rats were randomly divided into 2 groups (n=8): low-dose group (15 g/kg FA decoction) and high-dose group (30 g/kg FA decoction). The two groups were given by gavage twice a day for 7 days in succession. At the 7th day of medication, the rats were prohibited feeding for about 12 hours without restriction of water. On day 8, the rats were orally administered for the last time at 8 am, and then plasma samples (0.5 mL) were collected from the caudal vein at 5, 10, 20, 30, 60, 90, 240, 360, 480, and 600 min into heparinized vacuum tubes, followed by centrifugation at 3500 rpm (4°C) for 10 min. Then, the plasmas were obtained and immediately stored at −20°C until analysis. During the experiment, the rats were injected intraperitoneally with physiological saline for maintaining fluid balance.
# as §1
# The database was set up with the SPSS 17.0 software package from SPSS Inc., Chicago, Illinois (US). Differences between the two groups were analyzed by one-way analysis of variance. A two-tailed P value of <0.05 was considered statistically significant. The DAS 3.2.8 pharmacokinetic program (Chinese Pharmacological Society) was used to process pharmacokinetic parameters.
# The validated method was applied to determine the plasma concentrations of meranzin hydrate, naringenin, and hesperetin in rats after oral administration of FA decoction at a dose of 15 g/kg and 30 g/kg body weight. The mean plasma concentration-time profiles of meranzin hydrate, naringenin, and hesperetin are shown in Figure 4, and the estimated pharmacokinetic parameters are illustrated in Table 5. According to DAS software, the optimal metabolism process of the 3 components in rats could be depicted as a two-compartment pharmacokinetic model.
# [3] = Stability of the analytical solution of FA decoction at environmental temperature; format: physicochemical; details: FA decoction 1.7 g/mL
# Method: The raw herb (200 g) was immersed in distilled water (1 : 8, w/v) for 0.5 h at room temperature and thereafter was boiled for 0.5 h. The filtrate was collected, and the residue was boiled again in distilled water (1 : 6, w/v) for 0.5 h. The filtrates were mixed together, filtered through a 0.45 µm porous filtration membrane, then farther concentrated in the rotary evaporator to a final concentration equivalent to 1.7 g/mL FA, and stored at −20°C until analyzed. In the experiment, FA decoction (100 µL) was precisely measured, 900 µL methanol was added, then ultrasound was done for 5 min, and it was centrifuged at 15000 rpm (4°C) for 10 min; the supernatant liquor (20 µL) was shifted to a 1.5 mL EP tube, methanol-water (780 µL) was added, and ultrasound was performed, and it was centrifuged at 15000 rpm (4°C) for 10 min again. Finally, 5 µL of the supernatant liquor was injected into the apparatus for detection.
# The stability of the analytical solution at environmental temperature was studied by detecting sample solution at 0, 2, 4, 8, 12, and 24 h. The RSD values of peak areas were taken for assessment.
# [4] = high level (spiked 3300.0 / 3555.0 / 236.0 ng/mL)
# [5] = low level (spiked 6.5 / 13.9 / 3.7 ng/mL)
# [6] = medium level (spiked 206.0 / 222.0 / 29.5 ng/mL)
# [7] = oral FA decoction 15 g/kg twice a day for 7 days, n=8
# [8] = oral FA decoction 30 g/kg twice a day for 7 days, n=8
Structure (SMILES),"Short-term stability, Mean ± SD [1, 4]","AUC(0-t) [2, 7]","Cmax ([2]; oral FA decoction 15 g/kg, n=8)","Tmax ([2]; oral FA decoction 15 g/kg, n=8)","MRT last ([2]; oral FA decoction 15 g/kg, n=8)","half-life ([2]; oral FA decoction 15 g/kg, n=8)","AUC(0-t) [2, 8]","Cmax ([2]; oral FA decoction 30 g/kg, n=8)","Tmax ([2]; oral FA decoction 30 g/kg, n=8)","MRT last ([2]; oral FA decoction 30 g/kg, n=8)","half-life ([2]; oral FA decoction 30 g/kg, n=8)","AUC(0–t) elevation, 30 g/kg compared with the 15 g/kg group [2]","C max elevation, 30 g/kg compared with the 15 g/kg group [2]","Stability in FA decoction, Content ([3]; 0h)","Stability in FA decoction, Content ([3]; 2h)","Stability in FA decoction, Content ([3]; 4h)","Stability in FA decoction, Content ([3]; 8h)","Stability in FA decoction, Content ([3]; 12h)","Stability in FA decoction, Content ([3]; 24h)",detection in rat plasma [2],other results
"O=C1C[C@@H](c2ccc(O)cc2)Oc2cc(O)cc(O)c21 [Naringenin, naringenin]",3549.93 ± 455.39 ng/mL,3660 ± 861 ng·h/mL,694 ± 208 ng/mL,1.13 ± 0.35 h,4.06 ± 0.33 h,8.59 ± 9.25 h,11200 ± 1410 ng·h/mL,2580 ± 388 ng/mL,0.81 ± 0.26 h,3.89 ± 0.21 h,5.67 ± 2.9 h,3.05 fold,3.72 fold,0.27 mg/mL,0.26 mg/mL,0.26 mg/mL,0.26 mg/mL,0.26 mg/mL,0.25 mg/mL,,"Freeze-thaw stability, Mean ± SD [1, 4]: 3552.68 ± 409.74 ng/mL; Long-term stability, Mean ± SD [1, 4]: 3550.10 ± 450.62 ng/mL; Short-term stability, Mean ± SD [1, 5]: 13.03 ± 2.28 ng/mL; Freeze-thaw stability, Mean ± SD [1, 5]: 13.44 ± 4.79 ng/mL; Long-term stability, Mean ± SD [1, 5]: 13.32 ± 5.05 ng/mL; Short-term stability, Mean ± SD [1, 6]: 217.05 ± 22.66 ng/mL; Freeze-thaw stability, Mean ± SD [1, 6]: 219.51 ± 35.50 ng/mL; Long-term stability, Mean ± SD [1, 6]: 220.06 ± 34.22 ng/mL"
C[C@@H]1O[C@@H](O[C@H]2[C@H](Oc3cc(O)c4c(c3)O[C@H](c3ccc(O)cc3)CC4=O)O[C@H](CO)[C@@H](O)[C@@H]2O)[C@H](O)[C@H](O)[C@H]1O [naringin],,,,,,,,,,,,,,25.24 mg/mL,25.35 mg/mL,24.92 mg/mL,25.45 mg/mL,24.98 mg/mL,25.15 mg/mL,could not been detected,
COc1ccc([C@@H]2CC(=O)c3c(O)cc(O[C@@H]4O[C@H](CO)[C@@H](O)[C@H](O)[C@H]4O[C@@H]4O[C@@H](C)[C@H](O)[C@@H](O)[C@H]4O)cc3O2)cc1O [neohesperidin],,,,,,,,,,,,,,14.33 mg/mL,14.28 mg/mL,13.98 mg/mL,14.40 mg/mL,14.11 mg/mL,14.08 mg/mL,could not been detected,

# Further lines, with some results ahead:
"Short-term stability, Mean ± SD [1, 4]","AUC(0-t) [2, 7]","Cmax ([2]; oral FA decoction 15 g/kg, n=8)","Tmax ([2]; oral FA decoction 15 g/kg, n=8)","MRT last ([2]; oral FA decoction 15 g/kg, n=8)","half-life ([2]; oral FA decoction 15 g/kg, n=8)","AUC(0-t) [2, 8]","Cmax ([2]; oral FA decoction 30 g/kg, n=8)","Tmax ([2]; oral FA decoction 30 g/kg, n=8)","MRT last ([2]; oral FA decoction 30 g/kg, n=8)","half-life ([2]; oral FA decoction 30 g/kg, n=8)","AUC(0–t) elevation, 30 g/kg compared with the 15 g/kg group [2]","C max elevation, 30 g/kg compared with the 15 g/kg group [2]","Stability in FA decoction, Content ([3]; 0h)","Stability in FA decoction, Content ([3]; 2h)","Stability in FA decoction, Content ([3]; 4h)","Stability in FA decoction, Content ([3]; 8h)","Stability in FA decoction, Content ([3]; 12h)","Stability in FA decoction, Content ([3]; 24h)",detection in rat plasma [2],Structure (SMILES),other results
234.18 ± 22.13 ng/mL,508 ± 88 ng·h/mL,83.9 ± 14.2 ng/mL,1 ± 0.38 h,4.27 ± 0.27 h,8.05 ± 3.1 h,955 ± 227 ng·h/mL,174 ± 39 ng/mL,1.31 ± 0.26 h,4.15 ± 0.35 h,6.56 ± 3.35 h,1.88 fold,2.08 fold,0.19 mg/mL,0.19 mg/mL,0.18 mg/mL,0.18 mg/mL,0.19 mg/mL,0.18 mg/mL,,"COc1ccc([C@@H]2CC(=O)c3c(O)cc(O)cc3O2)cc1O [Hesperetin, hesperetin]","Freeze-thaw stability, Mean ± SD [1, 4]: 235.03 ± 19.71 ng/mL; Long-term stability, Mean ± SD [1, 4]: 235.66 ± 14.53 ng/mL; Short-term stability, Mean ± SD [1, 5]: 3.63 ± 0.87 ng/mL; Freeze-thaw stability, Mean ± SD [1, 5]: 3.52 ± 0.43 ng/mL; Long-term stability, Mean ± SD [1, 5]: 3.67 ± 0.57 ng/mL; Short-term stability, Mean ± SD [1, 6]: 27.88 ± 3.50 ng/mL; Freeze-thaw stability, Mean ± SD [1, 6]: 28.35 ± 4.03 ng/mL; Long-term stability, Mean ± SD [1, 6]: 28.28 ± 1.65 ng/mL; Cmax ([2]; oral, 15 g/kg group): 83.9 ± 14.2 ng/mL; Cmax ([2]; oral, 30 g/kg group): 174 ± 39 ng/mL"
,1530 ± 252 ng·h/mL,505 ± 64.3 ng/mL,1 ± 0.27 h,2.77 ± 0.34 h,2.67 ± 0.81 h,7370 ± 887 ng·h/mL,1830 ± 221 ng/mL,1.25 ± 0.27 h,3.21 ± 0.22 h,2.23 ± 0.59 h,4.8 fold,3.62 fold,0.34 mg/mL,0.36 mg/mL,0.33 mg/mL,0.34 mg/mL,0.35 mg/mL,0.34 mg/mL,,"COc1ccc2ccc(=O)oc2c1C[C@@H](O)C(C)(C)O [Meranzin hydrate, meranzin hydrate]",
,,,,,,,,,,,,,4.95 mg/mL,4.83 mg/mL,4.71 mg/mL,5.02 mg/mL,4.87 mg/mL,4.82 mg/mL,could not been detected,COc1ccc([C@@H]2CC(=O)c3c(O)cc(O[C@@H]4O[C@H](CO[C@@H]5O[C@@H](C)[C@H](O)[C@@H](O)[C@H]5O)[C@@H](O)[C@H](O)[C@H]4O)cc3O2)cc1O [hesperidin],
